Experiment [1] deals with untreated RBC uptake by HMDM. Kind of experiment: Efferocytosis assay: uptake of untreated RBC by HMDM. The format is cell-based, human. The note with it: 3 h assay. The procedure: (§1) For clear identification of efferocytosis by microscopy, RBC were stained with cell trace far red (CTFR; Molecular Probes) according to manufacturer's instructions. RBC were added to HMDM at 5×10^7 cells per well for three hours before gentle removal and fixation with 4% paraformaldehyde. To identify cells bound but not and ingested by HMDM the cells were stained with anti-glycophorin A/B FITC (HIR2, Biolegend).
(§2) Mannan (10 mg/ml), chitin (50 μg/ml) and laminarin (10 μg/ml; all Sigma Aldrich) were applied for 60 minutes prior to three hour efferocytosis/phagocytosis assay and were not removed.
(§3) Cells were imaged at 32 times magnification using Immuno-Fluorescent Microscope (Zeiss).

Experiment [2] addresses T1, Galanthus nivalis lectin (GNA) (Galanthus nivalis, UniProt P30617).
T1 construct: purchased Vector Laboratories B1245
T1 sequence (P30617 24-128 limits assumed): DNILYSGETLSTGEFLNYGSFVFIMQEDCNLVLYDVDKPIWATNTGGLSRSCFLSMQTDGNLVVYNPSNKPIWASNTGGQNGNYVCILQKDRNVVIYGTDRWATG
Briefly: Flow cytometry blockade of GNA lectin binding to the RBC surface. The note with it: oxidised / SCD RBC; lectin pre-incubated with mannan 5 mg/ml for 15 min. The procedure: RBC, approximately 5×10^6 per test, were washed three times in PBS, and then incubated in calcium buffer with biotinylated GNA (4 μg/ml, Vector Laboratories, B1245) or in PBS for PNA-FITC (2 μg/ml Sigma Aldrich L7381) for 30 minutes in calcium buffer at room temperature (protected from light). Cells were then washed and incubated with streptavidin PE-Cy7 (0.27 μg/ml; eBioscience) or PE (0.67 μg/ml; BD Pharmingen) for 30 min at room temperature. Cells were washed and analysed.
(§4) For blockade testing, Lectin or FC fusion were pre-incubated with mannan (5 mg/ml, unless otherwise stated) for 15 minutes at room temperature. Mixture of mannan and Lectin or FC fusion was then incubated with washed RBC and compared to binding of Lectin or FC fusion without mannan.
(§5) Samples were acquired on FACSCalibur (BD) and analysed using FlowJo v10.0 (Treestar) software. The normalised geomean was calculated by subtracting the geomean of the secondary only paired controls. For PNA-FITC analysis, normalised geomean was calculated by subtracting geomean of unstained RBC (PBS incubation) control.
In general terms: Flow cytometry measures light scatter and fluorescence of single cells or particles in a stream.

Experiment [3] concerns uptake of RBC from patients with SCD (HbSS) by HMDM. Briefly: Efferocytosis assay: uptake of RBC from patients with SCD by HMDM. The format is cell-based, human. The note with it: 3 h assay, mannan 10 mg/ml, chitin 50 μg/ml, anti-CD206 10 μg/ml. As for the experimental part:
as §1
(§6) Ligand binding of CD206 was blocked with antibody clone 15.2 (10 μg/ml; BioLegend) by adding antibody or isotype control (10 μg/ml mouse IgG1 kappa clone 107.3, BD Biosciences) for 60 minutes prior to three hour efferocytosis assay and were not removed.
as §2, §3

For experiment [4], the system named is oxidised RBC uptake by HMDM. Briefly: Efferocytosis assay: uptake of oxidised RBC by human monocyte derived macrophages. The format is cell-based. The note with it: RBC oxidised with CuSO4/ascorbic acid, 3 h assay, mannan 10 mg/ml, chitin 50 μg/ml, laminarin 10 μg/ml, anti-CD206 clone 15.2 10 μg/ml applied 60 min before, siRNA against MRC-1. As for the experimental part: RBC and SHSy5y neuronal cells were incubated with copper sulphate (CuSO4, 0.2 mM) and ascorbic acid (5 mM) for 60 minutes (RBC) or 30 minutes (SHSy5y) at 37° C. in DMEM with 4.5 g/L glucose. Cells were then washed in PBS three times prior to assays.
as §1, §6, §2, §3
To access percentage MR positive spindle/small round macrophages, anti-MR antibody (unlabelled clone 19.2) was stained with anti-mouse PE secondary antibody. Only spindle/small round macrophage population was examined as this is the subpopulation that expresses MR in wild type macrophages. SiRNA ([…], antisense, concentration Life Technologies) against mannose receptor (MRC-1) in humans was transfected into primary macrophages (RNAiMax, Life Technologies). (n=4 donors for all SiRNA experiments. Autologous red blood cells were used with macrophages.) Mannose receptor expression was established by microscopy using MR-Alexa-488 staining (described above) in the small non-granular macrophage sub-population by merging bright field and mannose receptor fluorescence staining.

For experiment [5], the system named is phagocytosis of beads by HMDM. Briefly: Bead phagocytosis assay with HMDM (control). The format is cell-based, human. The note with it: 3 h. As for the experimental part: Coumarin stained Fluoresbrite microparticles (8 μm; Polysciences, Inc.) were added to HMDM at 5×107 beads per well for three hours before gentle removal and suspension in PBS for immediate imaging.
as §6, §2, §3

Experiment [6] concerns carbohydrate binding domain of the mannose receptor CD206 (MR-CRD). Briefly: Flow cytometry blockade of MR-CRD (CD206 carbohydrate binding domain, Fc fusion) staining of oxidised RBC. The note with it: FC fusion pre-incubated with mannan 5 mg/ml. On the set-up: species or system murine. As for the experimental part:
Humanised FC fusions of murine C-type lectins (5 μg/ml, kind gift from Gordon Brown, Screening for Ligands of C-Type Lectin-Like Receptors, Elwira PyżGordon D. Brown, 2011) were incubated with RBC for 30 minutes at room temperature in calcium buffer then detected by Alexa Fluor 647 goat anti-human secondary antibody (2 μg/ml, 109-605-098, Jackson ImmunoResearch Laboratories) incubated for 30 minutes at room temperature.
as §4, §5

“Also recorded” adds a separate entry of the source.

Chain of carbohydrate binding domain of the mannose receptor CD206 (MR-CRD) (Q61830 645-781 limits assumed): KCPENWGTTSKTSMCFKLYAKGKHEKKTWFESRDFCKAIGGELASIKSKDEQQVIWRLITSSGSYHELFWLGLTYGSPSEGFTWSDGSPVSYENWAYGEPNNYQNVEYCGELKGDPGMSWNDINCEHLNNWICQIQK

For the substance chitin, the “uptake of untreated RBC by HMDM” value in experiment [1] was “not untreated”. Moreover, the “blockade of GNA binding to RBC surface (FACS)” value in experiment [2] is reported as “inhibitable”. In addition, the “uptake of RBC from patients with SCD by HMDM” value in experiment [3] is recorded as “significantly inhibited; also recorded: blocked”. In addition, the “uptake (efferocytosis) of oxidised RBC by HMDM” value (shortened to “uptake (efferocytosis)”) in experiment [4] was “significantly inhibited; also recorded: abrogated”.

Consider laminarin, for which, in experiment [4], the “uptake (efferocytosis)” value was “not laminarin, significantly inhibited”.

For mannan, in experiment [1], the “uptake of untreated RBC by HMDM” value was “not untreated”. In addition, the “blockade of GNA binding to RBC surface (FACS)” value in experiment [2] is on record as “effective blockade; also recorded: inhibitable”. Moreover, in experiment [5], the “phagocytosis of control beads by HMDM” value is “no effect”. The “blockade of MR-CRD staining of oxidised RBC (FACS)” value in experiment [6] is “effective blockade”. Also, in experiment [3], the “uptake of RBC from patients with SCD by HMDM” value was “significantly inhibited; also recorded: blocked”. In addition, the “uptake (efferocytosis)” value in experiment [4] is given as “significantly inhibited; also recorded: abrogated”; in experiment [4] (listed as Mannan), “significantly blocked uptake”.

Values taken from patent US20210181215A1, “TREATMENT AND DIAGNOSIS OF ANAEMIA” (THE UNIVERSITY COURT OF THE UNIVERSITY OF ABERDEEN, priority 2017, published 2021).
